Results as given in patent US9809578B2, “Pyrazolyl urea, thiourea, guanidine and cyanoguanidine compounds as trkA kinase inhibitors” (Array BioPharma Inc., priority 2012, dated 2017).

Legend:
Assay type in all cases: biochemical
Details in all cases: 10 μM, ATP near Km
PDK1 = target: T1, PDK1 (Homo sapiens, UniProt O15530); assay: KinaseProfiler PDK1
T1 construct: purchased Millipore, Inc. (KinaseProfiler service)
Excerpt: (§1) The compound was run in duplicate at a concentration of ATP near the Km for each individual kinase according to Millipore's specifications.

CAMK1d = target: T2, CAMK1d (Homo sapiens, UniProt Q8IU85); assay: KinaseProfiler CAMK1d
T2 construct: purchased Millipore (KinaseProfiler service)
Excerpt: as §1

MINK = target: T3, MINK (Homo sapiens, UniProt Q8N4C8); assay: KinaseProfiler MINK
T3 construct: purchased Millipore, Inc. (KinaseProfiler service)
Excerpt: as §1

SGK3 = target: T4, SGK3 (Homo sapiens, UniProt Q96BR1); assay: KinaseProfiler SGK3
T4 construct: purchased Millipore, Inc. (KinaseProfiler service)
Excerpt: as §1

Axl = target: T5, Axl (Homo sapiens, UniProt P30530); assay: KinaseProfiler Axl
T5 construct: purchased Millipore (KinaseProfiler service)
Excerpt: as §1

DMPK = target: T6, DMPK (Homo sapiens, UniProt Q09013); assay: KinaseProfiler DMPK
T6 construct: purchased Millipore, Inc. (KinaseProfiler service)
Excerpt: as §1

MSSK1 = target: T7, MSSK1 (Homo sapiens, UniProt Q9UPE1); assay: KinaseProfiler MSSK1
T7 construct: purchased Millipore, Inc. (KinaseProfiler service)
Excerpt: as §1

MARK2 = target: T8, MARK2 (Homo sapiens, UniProt Q7KZI7); assay: KinaseProfiler MARK2
T8 construct: purchased Millipore, Inc. (KinaseProfiler service)
Excerpt: as §1

LKB1 = target: T9, LKB1 (Homo sapiens, UniProt Q15831); assay: KinaseProfiler LKB1
T9 construct: purchased Millipore, Inc. (KinaseProfiler service)
Excerpt: as §1

GRK5 = target: T10, GRK5 (Homo sapiens, UniProt P34947); assay: KinaseProfiler GRK5
T10 construct: purchased Millipore, Inc. (KinaseProfiler service)
Excerpt: as §1

STK33 = target: T11, STK33 (Homo sapiens, UniProt Q9BYT3); assay: KinaseProfiler STK33
T11 construct: purchased Millipore, Inc. (KinaseProfiler service)
Excerpt: as §1

CDK7/cyclinH/MAT1 = target: T12, CDK7/cyclinH/MAT1 (Homo sapiens, UniProt P50613); assay: KinaseProfiler CDK7/cyclinH/MAT1
T12 construct: purchased Millipore, Inc. (KinaseProfiler service)
Excerpt: as §1

CK2alpha2 = target: T13, CK2alpha2 (Homo sapiens, UniProt P19784); assay: KinaseProfiler CK2alpha2
T13 construct: purchased Millipore, Inc. (KinaseProfiler service)
Excerpt: as §1

DAPK3 = target: T14, DAPK3 (Homo sapiens, UniProt O43293); assay: KinaseProfiler DAPK3
T14 construct: purchased Millipore, Inc. (KinaseProfiler service)
Excerpt: as §1

GSK3beta = target: T15, GSK3beta (Homo sapiens, UniProt P49841); assay: KinaseProfiler GSK3beta
T15 construct: purchased Millipore, Inc. (KinaseProfiler service)
Excerpt: as §1

EphA5 = target: T16, EphA5 (Homo sapiens, UniProt P54756); assay: KinaseProfiler EphA5
T16 construct: purchased Millipore, Inc. (KinaseProfiler service)
Excerpt: as §1

ALK4 = target: T17, ALK4 (Homo sapiens, UniProt P36896); assay: KinaseProfiler ALK4
T17 construct: purchased Millipore (KinaseProfiler service)
Excerpt: as §1

SGK2 = target: T18, SGK2 (Homo sapiens, UniProt Q9HBY8); assay: KinaseProfiler SGK2
T18 construct: purchased Millipore, Inc. (KinaseProfiler service)
Excerpt: as §1

EphA2 = target: T19, EphA2 (Homo sapiens, UniProt P29317); assay: KinaseProfiler EphA2
T19 construct: purchased Millipore, Inc. (KinaseProfiler service)
Excerpt: as §1

AKT3 = target: T20, AKT3 (Homo sapiens, UniProt Q9Y243); assay: KinaseProfiler AKT3
T20 construct: purchased Millipore (KinaseProfiler service)
Excerpt: as §1

PKCepsilon = target: T21, PKCepsilon (Homo sapiens, UniProt Q02156); assay: KinaseProfiler PKCepsilon
T21 construct: purchased Millipore, Inc. (KinaseProfiler service)
Excerpt: as §1

PhKgamma2 = target: T22, PhKgamma2 (Homo sapiens, UniProt P15735); assay: KinaseProfiler PhKgamma2
T22 construct: purchased Millipore, Inc. (KinaseProfiler service)
T22 sequence (P15735 whole entry): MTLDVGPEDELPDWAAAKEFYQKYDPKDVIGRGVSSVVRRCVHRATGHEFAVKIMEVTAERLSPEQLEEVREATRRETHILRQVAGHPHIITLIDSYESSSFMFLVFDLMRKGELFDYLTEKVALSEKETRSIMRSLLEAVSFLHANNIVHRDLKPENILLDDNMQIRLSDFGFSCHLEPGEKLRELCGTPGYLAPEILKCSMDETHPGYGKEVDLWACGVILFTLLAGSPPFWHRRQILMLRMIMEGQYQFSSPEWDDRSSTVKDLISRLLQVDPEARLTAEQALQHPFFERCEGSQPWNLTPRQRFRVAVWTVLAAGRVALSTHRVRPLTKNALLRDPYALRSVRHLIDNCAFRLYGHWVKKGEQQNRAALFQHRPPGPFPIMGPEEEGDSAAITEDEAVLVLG
Excerpt: as §1

IGF-1R Activated = target: T23, IGF-1R Activated (Homo sapiens, UniProt P08069); assay: KinaseProfiler IGF-1R Activated
T23 construct: purchased Millipore, Inc. (KinaseProfiler service)
T23 sequence (P08069 959-1367 limits assumed): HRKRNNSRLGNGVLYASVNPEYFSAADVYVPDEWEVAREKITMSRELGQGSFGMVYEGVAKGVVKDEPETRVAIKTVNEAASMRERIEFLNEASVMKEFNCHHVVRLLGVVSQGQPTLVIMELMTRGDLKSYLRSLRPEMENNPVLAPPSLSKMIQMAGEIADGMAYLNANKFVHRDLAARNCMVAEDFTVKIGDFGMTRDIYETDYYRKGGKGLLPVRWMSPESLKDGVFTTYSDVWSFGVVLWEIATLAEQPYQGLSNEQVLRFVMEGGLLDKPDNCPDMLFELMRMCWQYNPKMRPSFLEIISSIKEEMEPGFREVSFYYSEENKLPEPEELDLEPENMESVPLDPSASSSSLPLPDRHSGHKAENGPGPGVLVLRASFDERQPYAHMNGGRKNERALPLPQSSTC
Excerpt: as §1

SRC = target: T24, SRC (Homo sapiens, UniProt P12931); assay: KinaseProfiler SRC
T24 construct: purchased Millipore, Inc. (KinaseProfiler service)
T24 sequence (P12931 whole entry): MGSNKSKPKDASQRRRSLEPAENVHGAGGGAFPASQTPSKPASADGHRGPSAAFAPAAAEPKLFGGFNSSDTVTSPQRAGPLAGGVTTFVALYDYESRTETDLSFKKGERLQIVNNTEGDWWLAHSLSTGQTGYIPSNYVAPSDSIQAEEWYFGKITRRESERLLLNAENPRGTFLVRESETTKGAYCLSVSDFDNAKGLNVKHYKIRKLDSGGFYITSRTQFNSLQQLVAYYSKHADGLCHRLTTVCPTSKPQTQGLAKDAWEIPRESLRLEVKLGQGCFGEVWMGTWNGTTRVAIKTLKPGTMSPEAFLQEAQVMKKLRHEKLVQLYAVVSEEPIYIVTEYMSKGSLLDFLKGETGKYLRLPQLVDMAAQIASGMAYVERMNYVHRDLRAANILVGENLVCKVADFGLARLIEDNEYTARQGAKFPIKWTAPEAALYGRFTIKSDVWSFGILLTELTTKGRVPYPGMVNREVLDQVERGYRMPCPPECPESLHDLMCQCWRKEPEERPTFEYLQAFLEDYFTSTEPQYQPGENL
Excerpt: as §1

BrSK1 = target: T25, BrSK1 (Homo sapiens, UniProt Q8TDC3); assay: KinaseProfiler BrSK1
T25 construct: purchased Millipore (KinaseProfiler service)
Excerpt: as §1

NEK3 = target: T26, NEK3 (Homo sapiens, UniProt P51956); assay: KinaseProfiler NEK3
T26 construct: purchased Millipore, Inc. (KinaseProfiler service)
T26 sequence (P51956 whole entry): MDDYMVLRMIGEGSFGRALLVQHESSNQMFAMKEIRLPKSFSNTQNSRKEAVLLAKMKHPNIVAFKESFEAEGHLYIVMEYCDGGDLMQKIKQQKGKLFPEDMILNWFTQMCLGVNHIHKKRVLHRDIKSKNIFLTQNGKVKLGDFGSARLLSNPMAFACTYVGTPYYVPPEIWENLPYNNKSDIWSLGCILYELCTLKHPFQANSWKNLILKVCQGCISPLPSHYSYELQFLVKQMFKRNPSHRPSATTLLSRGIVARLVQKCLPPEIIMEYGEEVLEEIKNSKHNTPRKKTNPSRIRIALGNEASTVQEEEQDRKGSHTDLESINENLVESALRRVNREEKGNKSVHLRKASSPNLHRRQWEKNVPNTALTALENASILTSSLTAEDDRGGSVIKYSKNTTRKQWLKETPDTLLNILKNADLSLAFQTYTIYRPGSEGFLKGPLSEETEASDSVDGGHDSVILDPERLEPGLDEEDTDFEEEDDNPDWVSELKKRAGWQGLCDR
Excerpt: as §1

IRAK4 = target: T27, IRAK4 (Homo sapiens, UniProt Q9NWZ3); assay: KinaseProfiler IRAK4
T27 construct: purchased Millipore, Inc. (KinaseProfiler service)
Excerpt: as §1

WNK2 = target: T28, WNK2 (Homo sapiens, UniProt Q9Y3S1); assay: KinaseProfiler WNK2
T28 construct: purchased Millipore, Inc. (KinaseProfiler service)
Excerpt: as §1

Flt4 = target: T29, Flt4 (Homo sapiens, UniProt P35916); assay: KinaseProfiler Flt4
T29 construct: purchased Millipore, Inc. (KinaseProfiler service)
T29 sequence (P35916 25-1363): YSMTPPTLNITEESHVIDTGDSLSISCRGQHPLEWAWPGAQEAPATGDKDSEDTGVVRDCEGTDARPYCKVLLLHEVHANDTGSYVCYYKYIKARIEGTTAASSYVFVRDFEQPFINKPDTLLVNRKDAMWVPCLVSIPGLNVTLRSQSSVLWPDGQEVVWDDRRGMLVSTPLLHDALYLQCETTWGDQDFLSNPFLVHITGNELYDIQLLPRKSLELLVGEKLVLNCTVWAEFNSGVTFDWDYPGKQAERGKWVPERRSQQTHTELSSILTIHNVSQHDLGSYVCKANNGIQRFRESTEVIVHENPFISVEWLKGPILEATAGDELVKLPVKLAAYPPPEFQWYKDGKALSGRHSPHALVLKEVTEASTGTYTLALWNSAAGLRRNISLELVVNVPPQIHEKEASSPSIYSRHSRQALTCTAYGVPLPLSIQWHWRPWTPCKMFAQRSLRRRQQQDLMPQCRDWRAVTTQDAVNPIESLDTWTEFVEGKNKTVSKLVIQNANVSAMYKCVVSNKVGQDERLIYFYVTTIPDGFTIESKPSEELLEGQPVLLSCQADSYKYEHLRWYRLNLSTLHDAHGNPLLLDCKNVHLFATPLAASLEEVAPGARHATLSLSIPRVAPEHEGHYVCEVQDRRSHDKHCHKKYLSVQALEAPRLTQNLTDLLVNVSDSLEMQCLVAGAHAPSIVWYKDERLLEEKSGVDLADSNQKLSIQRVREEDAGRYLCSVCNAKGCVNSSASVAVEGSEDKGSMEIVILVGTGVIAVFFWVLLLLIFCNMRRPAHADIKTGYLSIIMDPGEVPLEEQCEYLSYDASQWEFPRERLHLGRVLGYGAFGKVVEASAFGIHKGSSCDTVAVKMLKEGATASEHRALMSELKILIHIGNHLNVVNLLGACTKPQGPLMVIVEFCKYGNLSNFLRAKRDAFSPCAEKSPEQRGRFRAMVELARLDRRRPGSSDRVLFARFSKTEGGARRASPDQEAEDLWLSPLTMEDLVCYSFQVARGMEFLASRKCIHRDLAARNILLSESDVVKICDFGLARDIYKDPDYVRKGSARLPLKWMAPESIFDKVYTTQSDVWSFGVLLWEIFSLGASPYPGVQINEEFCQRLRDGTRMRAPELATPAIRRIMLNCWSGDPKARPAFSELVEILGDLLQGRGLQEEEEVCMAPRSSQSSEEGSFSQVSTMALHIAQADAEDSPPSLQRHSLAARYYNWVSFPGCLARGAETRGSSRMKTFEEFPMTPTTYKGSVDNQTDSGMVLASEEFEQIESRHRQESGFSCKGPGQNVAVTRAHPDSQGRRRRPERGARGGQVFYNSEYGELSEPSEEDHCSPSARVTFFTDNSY
Excerpt: as §1

BTK = target: T30, BTK (Homo sapiens, UniProt Q06187); assay: KinaseProfiler BTK
T30 construct: purchased Millipore (KinaseProfiler service)
Excerpt: as §1

TSSK2 = target: T31, TSSK2 (Homo sapiens, UniProt Q96PF2); assay: KinaseProfiler TSSK2
T31 construct: purchased Millipore, Inc. (KinaseProfiler service)
Excerpt: as §1

CHK1 = target: T32, CHK1 (Homo sapiens, UniProt O14757); assay: KinaseProfiler CHK1
T32 construct: purchased Millipore, Inc. (KinaseProfiler service)
Excerpt: as §1

LOK = target: T33, LOK (Homo sapiens, UniProt O94804); assay: KinaseProfiler LOK
T33 construct: purchased Millipore, Inc. (KinaseProfiler service)
Excerpt: as §1

PKCalpha = target: T34, PKCalpha (Homo sapiens, UniProt P17252); assay: KinaseProfiler PKCalpha
T34 construct: purchased Millipore, Inc. (KinaseProfiler service)
Excerpt: as §1

PDGFRalpha = target: T35, PDGFRalpha (Homo sapiens, UniProt P16234); assay: KinaseProfiler PDGFRalpha
T35 construct: purchased Millipore, Inc. (KinaseProfiler service)
T35 sequence (P16234 24-1089): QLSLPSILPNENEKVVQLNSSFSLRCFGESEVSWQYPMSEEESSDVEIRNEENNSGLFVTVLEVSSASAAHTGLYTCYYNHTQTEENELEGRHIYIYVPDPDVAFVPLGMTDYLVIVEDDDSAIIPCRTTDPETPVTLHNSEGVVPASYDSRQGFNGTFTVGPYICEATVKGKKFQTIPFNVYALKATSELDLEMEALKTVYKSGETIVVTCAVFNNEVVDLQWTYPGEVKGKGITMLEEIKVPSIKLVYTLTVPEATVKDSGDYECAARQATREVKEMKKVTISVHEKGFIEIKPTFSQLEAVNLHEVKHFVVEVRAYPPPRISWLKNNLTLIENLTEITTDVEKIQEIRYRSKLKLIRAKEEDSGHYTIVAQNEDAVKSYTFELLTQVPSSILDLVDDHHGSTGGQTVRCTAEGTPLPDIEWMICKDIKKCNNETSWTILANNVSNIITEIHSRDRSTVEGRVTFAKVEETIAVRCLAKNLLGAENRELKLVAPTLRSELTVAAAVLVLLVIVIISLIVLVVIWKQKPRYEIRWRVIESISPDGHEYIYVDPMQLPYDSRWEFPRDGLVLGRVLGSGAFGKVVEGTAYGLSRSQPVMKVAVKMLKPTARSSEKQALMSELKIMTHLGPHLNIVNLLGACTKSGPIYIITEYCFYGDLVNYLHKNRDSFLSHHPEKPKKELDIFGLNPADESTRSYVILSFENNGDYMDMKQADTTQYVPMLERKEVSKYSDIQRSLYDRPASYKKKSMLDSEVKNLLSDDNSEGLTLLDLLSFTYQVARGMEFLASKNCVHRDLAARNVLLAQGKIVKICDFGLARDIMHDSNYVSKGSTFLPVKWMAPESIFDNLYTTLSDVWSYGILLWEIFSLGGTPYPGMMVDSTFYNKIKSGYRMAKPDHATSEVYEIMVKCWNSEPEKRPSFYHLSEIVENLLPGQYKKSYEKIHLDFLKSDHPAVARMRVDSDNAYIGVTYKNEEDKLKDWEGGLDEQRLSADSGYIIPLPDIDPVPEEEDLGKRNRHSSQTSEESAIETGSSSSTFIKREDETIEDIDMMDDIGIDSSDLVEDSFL
Excerpt: as §1

Flt3 = target: T36, Flt3 (Homo sapiens, UniProt P36888); assay: KinaseProfiler Flt3
T36 construct: purchased Millipore, Inc. (KinaseProfiler service)
Excerpt: as §1

ALK = target: T37, ALK (Homo sapiens, UniProt Q9UM73); assay: KinaseProfiler ALK
T37 construct: purchased Millipore (KinaseProfiler service)
Excerpt: as §1

TEC Activated = target: T38, TEC Activated (Homo sapiens, UniProt P42680); assay: KinaseProfiler TEC Activated
T38 construct: purchased Millipore, Inc. (KinaseProfiler service)
Excerpt: as §1

HIPK3 = target: T39, HIPK3 (Homo sapiens, UniProt Q9H422); assay: KinaseProfiler HIPK3
T39 construct: purchased Millipore, Inc. (KinaseProfiler service)
Excerpt: as §1

EphA7 = target: T40, EphA7 (Homo sapiens, UniProt Q15375); assay: KinaseProfiler EphA7
T40 construct: purchased Millipore, Inc. (KinaseProfiler service)
Excerpt: as §1

p70S6K = target: T41, p70S6K (Homo sapiens, UniProt P23443); assay: KinaseProfiler p70S6K
T41 construct: purchased Millipore, Inc. (KinaseProfiler service)
Excerpt: as §1

CHK2 = target: T42, CHK2 (Homo sapiens, UniProt O96017); assay: KinaseProfiler CHK2
T42 construct: purchased Millipore, Inc. (KinaseProfiler service)
T42 sequence (O96017 whole entry): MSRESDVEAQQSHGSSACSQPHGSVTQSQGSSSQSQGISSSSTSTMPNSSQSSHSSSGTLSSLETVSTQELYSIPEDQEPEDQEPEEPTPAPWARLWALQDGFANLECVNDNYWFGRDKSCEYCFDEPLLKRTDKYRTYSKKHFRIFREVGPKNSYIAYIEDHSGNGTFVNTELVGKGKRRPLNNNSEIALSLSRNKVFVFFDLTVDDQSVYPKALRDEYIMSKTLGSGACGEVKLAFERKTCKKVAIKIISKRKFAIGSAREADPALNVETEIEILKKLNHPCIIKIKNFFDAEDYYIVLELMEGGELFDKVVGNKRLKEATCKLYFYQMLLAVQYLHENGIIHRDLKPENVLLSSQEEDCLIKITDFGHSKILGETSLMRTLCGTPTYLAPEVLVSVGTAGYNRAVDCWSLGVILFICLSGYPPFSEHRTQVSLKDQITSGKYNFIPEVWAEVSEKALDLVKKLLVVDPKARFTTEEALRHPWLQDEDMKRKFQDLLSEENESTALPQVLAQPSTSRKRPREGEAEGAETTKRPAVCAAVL
Excerpt: as §1

p38alpha = target: T43, p38alpha (Homo sapiens, UniProt Q16539); assay: KinaseProfiler p38alpha
T43 construct: purchased Millipore, Inc. (KinaseProfiler service)
Excerpt: as §1

Q: How did the “Avg POC” value (PDK1) turn out when `Cc1c(-c2cnn(C)c2)nn(-c2ccccc2)c1NC(=O)Nc1cc(C(F)(F)F)nn1-c1ccccc1` [Example 3, 1-(1′,4-dimethyl-1-phenyl-1H,1′H-[3,4′-bipyrazol]-5-yl)-3-(1-phenyl-3-(trifluoromethyl)-1H-pyrazol-5-yl)urea] was run?
A: 123 POC

Q: What about the “Avg POC” value (CAMK1d) of the same compound?
A: 138 POC

Q: And the “Avg POC” value (MINK)?
A: 105 POC

Q: And the “Avg POC” value (SGK3)?
A: 133 POC

Q: What about the “Avg POC” value (Axl) of the same compound?
A: 117 POC

Q: What about the “Avg POC” value (DMPK) of the same compound?
A: 105 POC

Q: What about the “Avg POC” value (MSSK1) of the same compound?
A: 140 POC

Q: And the “Avg POC” value (MARK2)?
A: 106.5 POC

Q: What about the “Avg POC” value (LKB1) of the same compound?
A: 95.5 POC

Q: What about the “Avg POC” value (GRK5) of the same compound?
A: 84 POC

Q: What about the “Avg POC” value (STK33) of the same compound?
A: 107.5 POC

Q: And the “Avg POC” value (CDK7/cyclinH/MAT1)?
A: 120.5 POC

Q: And the “Avg POC” value (CK2alpha2)?
A: 102.5 POC

Q: What about the “Avg POC” value (DAPK3) of the same compound?
A: 118.5 POC

Q: And the “Avg POC” value (GSK3beta)?
A: 195 POC

Q: And the “Avg POC” value (EphA5)?
A: 116 POC

Q: And the “Avg POC” value (ALK4)?
A: 104.5 POC

Q: And the “Avg POC” value (SGK2)?
A: 159.5 POC

Q: What about the “Avg POC” value (EphA2) of the same compound?
A: 120 POC

Q: And the “Avg POC” value (AKT3)?
A: 99 POC

Q: What about the “Avg POC” value (PKCepsilon) of the same compound?
A: 98 POC

Q: And the “Avg POC” value (PhKgamma2)?
A: 115.5 POC

Q: What about the “Avg POC” value (IGF-1R Activated) of the same compound?
A: 87 POC

Q: And the “Avg POC” value (SRC)?
A: 102.5 POC

Q: What about the “Avg POC” value (BrSK1) of the same compound?
A: 127 POC

Q: What about the “Avg POC” value (NEK3) of the same compound?
A: 105.5 POC

Q: What about the “Avg POC” value (IRAK4) of the same compound?
A: 131.5 POC

Q: What about the “Avg POC” value (WNK2) of the same compound?
A: 120 POC

Q: What about the “Avg POC” value (Flt4) of the same compound?
A: 80.5 POC

Q: And the “Avg POC” value (BTK)?
A: 123 POC

Q: What about the “Avg POC” value (TSSK2) of the same compound?
A: 132.5 POC

Q: What about the “Avg POC” value (CHK1) of the same compound?
A: 108 POC

Q: What about the “Avg POC” value (LOK) of the same compound?
A: 97.5 POC

Q: And the “Avg POC” value (PKCalpha)?
A: 104 POC

Q: And the “Avg POC” value (PDGFRalpha)?
A: 106 POC

Q: And the “Avg POC” value (Flt3)?
A: 71 POC

Q: And the “Avg POC” value (ALK)?
A: 110 POC

Q: What about the “Avg POC” value (TEC Activated) of the same compound?
A: 144.5 POC

Q: And the “Avg POC” value (HIPK3)?
A: 109.5 POC

Q: And the “Avg POC” value (EphA7)?
A: 91 POC

Q: What about the “Avg POC” value (p70S6K) of the same compound?
A: 273.5 POC

Q: And the “Avg POC” value (CHK2)?
A: 126.5 POC

Q: What about the “Avg POC” value (p38alpha) of the same compound?
A: 93 POC
